Key:
[1] = degradation time in vivo of ω-oxidation blocked analogue
Excerpt: ω-oxidation is believed to be the main pathway for degradation of the fatty acid analogues as described with a block in the X position. Experiments were thus performed where R′ was changed to block ω-oxidation, by introducing a triple bond at the methyl end of the fatty acid analogue. […] This is important for the use of the fatty acid analogues in pharmaceutical preparation, as it may potentiate the effects of the β-oxidizable fatty acid analogues by further slowing down their breakdown.

[2] = tested on: mitochondrial β-oxidation in the liver; assay: activity of mitochondrial β-oxidation in the liver of fatty acid analogues; conditions: in vivo
Excerpt: Although all fatty acid anagoges with an odd positioning of the β-oxidation blocker X away from the carboxylic end block β-oxidation, the extent of their biological effect may be variable. This is due to the difference in biological degradation time of the various compounds. The inventors have done experiments to show the effect of moving X further from the carboxylic fatty acid end. In these experiments the activity (in nmol/min/mg/protein) of mitochondrial β-oxidation in the liver of fatty acid analogues was measured with sulphur in the 3, 5 and 7 positions relative to the carboxyl end. The activities were 0.81 for sulphur in the 3rd position, 0.61 for sulphur in the 5th position, 0.58 for sulphur in the 7th position, and 0.47 for palmitic acid, the non β-oxidation blocking control. […] However, as the decline is great for going from the 3rd to 5th position, but small going from the 5th to 7th position, it is reasonable to assume that this decline will continue to be less as one moves out the chain, and thus that it will be very far out indeed before no effect (compared to the control) is seen at all.

CC#CCCCCCCCCCCCSCC [3-thia-15-heptadecyn]
degradation time in vivo [1]: substantially increased degradation time

CCCCCCCCCCCCCCCC(=O)O [palmitic acid]
activity of mitochondrial β-oxidation in the liver [2]: 0.47 nmol/min/mg/protein

Reference: US20120276212A1, “COMPOSITION COMPRISING PLANT AND/OR FISH OILS AND NON-OXIDIZABLE FATTY ACID ENTITIES” (LIFE SCIENCE NUTRITION AS, priority 2004, published 2012)
